Results published in patent US20200115357A1, “LIVER X RECEPTORS (LXR) MODULATORS” (Phenex-FXR GmbH, priority 2017, published 2020).
pEC50: −log10 of the molar value. Read-outs that look alike come from different tables or passages of the source.

Key:
[1] = Pharmacokinetics in mice, blood and liver exposure via LC-MS; assay type: in vivo; conditions: for oral bioavailability (in words): mice, oral administration; for blood exposure, 4 h / liver exposure, 4 h: po, Dose (mg) 20, C57BL/6J mice, 4 h after administration
Description: The pharmacokinetics of different sulfonamides was assessed in mice after single dosing and oral and intraperitoneal administrations. Blood and liver exposure was measured via LC-MS.
The study design was as follows:
Animals: C57BL/6J (Janvier) males
Diet: standard rodent chow
Vehicle for i.p. injection: 0.5% HPMC (w:v) in water, injection volume: <5 mL/kg
Animal handling: animals were withdrawn from food at least 12 h before administration
Design: single dose oral and bid ip administration, n=3 animals per group
Sacrifice: at t=4 h after administration
Bioanalytics: LC-MS of liver and blood samples

[2] = rat liver microsomes; cited from earlier work
[3] = human liver microsomes; cited from earlier work
LXR = conditions: acid formed by ester cleavage of SR9238; cited from earlier work
[4] = target: T1, GST-LXRβ ligand-binding domain (Homo sapiens, UniProt P55055, DUP175-175); assay: TR-FRETβ activity assay (LXRβ-LBD / NCoA3 coactivator peptide, prestimulated with 24(S)-25-epoxycholesterol); assay type: biochemical; set-up: key to behavior in FRET assay: ag=agonist; ia=inverse agonist; conditions: for pEC50: 1 μM 24(S)-25-epoxycholesterol as prestimulating agonist, read-out: FRETβ activity range (EC50); for behavior in FRET assay: agonist or inverse agonist
T1 construct: amino acids 156-461; NP009052; made in house; host or cells: E. coli
T1 sequence (P55055 with tags, fused parts or gaps DUP175-175): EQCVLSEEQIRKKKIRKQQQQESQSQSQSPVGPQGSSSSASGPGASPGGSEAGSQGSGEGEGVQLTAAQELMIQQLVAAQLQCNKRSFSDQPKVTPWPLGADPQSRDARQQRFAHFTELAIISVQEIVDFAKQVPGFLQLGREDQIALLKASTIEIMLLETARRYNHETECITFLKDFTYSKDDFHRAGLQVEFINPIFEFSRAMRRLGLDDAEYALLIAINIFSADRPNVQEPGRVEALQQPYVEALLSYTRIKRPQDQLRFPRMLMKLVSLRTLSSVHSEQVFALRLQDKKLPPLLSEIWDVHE
How it was run: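 E. coli-expressed GST-LXRβ LBD (aa 156-461) at 76 nM with biotinylated NCoA3 coactivator peptide (400 nM), in 240 mM KCl, BSA and Triton-X-100. Anti-GST-Tb cryptate/streptavidin-XL665 TR-FRET after 1 h equilibration at 4 °C, excitation 340 nm, emission 615 and 665 nm. Run in triplicate.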

[5] = target: T2, LXRα ligand-binding domain (LBD) (Homo sapiens, UniProt Q13133); assay: LXR Gal4 reporter transient transfection assay (M2H), Gal4α LBD; assay type: cell-based; conditions: HEK293 cells; for pEC50: read-out: M2H Gal4α LBD activity range (EC50)
T2 construct: expressed in transfected cells; host or cells: HEK293
T2 sequence (Q13133 155-447): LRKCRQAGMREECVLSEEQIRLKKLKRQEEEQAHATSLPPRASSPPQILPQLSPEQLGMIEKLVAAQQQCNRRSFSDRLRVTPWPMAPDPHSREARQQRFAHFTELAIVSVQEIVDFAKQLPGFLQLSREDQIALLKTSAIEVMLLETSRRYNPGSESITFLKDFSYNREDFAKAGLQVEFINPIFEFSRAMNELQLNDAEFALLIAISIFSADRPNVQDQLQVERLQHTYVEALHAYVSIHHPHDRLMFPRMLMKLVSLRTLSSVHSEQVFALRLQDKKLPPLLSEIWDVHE
Description: (§1) The tested compounds were usually dissolved, tested and stored as 20 mM stock solutions in DMSO. Since sulfonyl acetic acid derivatives tend to decarboxylate under these conditions, these stock solutions were prepared, tested and stored as 20 mM DMSO stock solutions containing 100 mM trifluoroacetic acid (5 equivalents). Sulfonyl acetic acid derivatives are shelf stable as solid at rt for long time as reported by Griesbrecht et al. (Synlett 2010:374) or Faucher et al. (J. Med. Chem. 2004; 47:18).
(§2) LXR Gal4 Reporter Transient Transfection Assays
(§3) LXRα and LXRβ activity status was determined via detection of interaction with coactivator and corepressor proteins in mammalian two-hybrid experiments (M2H). For this, via transient transfection the full length (FL) proteins of LXRα (amino acids 1-447; NP005684; SEQ ID NO:7) or LXRβ-(amino acids 1-461; NP009052; SEQ ID NO:8) or the ligand-binding domains (LBD) of LXRα (amino acids 155-447 SEQ ID NO:3) or LXRβ (amino acids 156-461; SEQ ID NO:4) were expressed from pCMV-AD (Stratagene) as fusions to the transcriptional activation domain of NFkB. As cofactors, domains of either the steroid receptor coactivator 1 (SRC1; amino acids 552-887; SEQ ID NO:5) or of the corepressor NCoR (amino acids 1903-2312 SEQ ID NO:6) were expressed as fusions to the DNA binding domain of the yeast transcription factor GAL4 (from pCMV-BD; Stratagene). Interaction was monitored via activation of a coexpressed Firefly Luciferase Reporter gene under control of a promoter containing repetitive GAL4 response elements (vector pFRLuc; Stratagene). Transfection efficiency was controlled via cotransfection of constitutively active pRL-CMV Renilla reniformis luciferase reporter (Promega). HEK293 cells were grown in minimum essential medium (MEM) with 2 mM L-glutamine and Earle's balanced salt solution supplemented with 8.3% fetal bovine serum, 0.1 mM non-essential amino acids, 1 mM sodium pyruvate, at 37° C. in 5% CO2. 3.5×10^4 cells/well were plated in 96-well cell culture plates in growth medium supplemented with 8.3% fetal bovine serum for 16-20 h to ˜90% confluency. For transfection, medium was taken off and LXR and cofactor expressing plasmids as well as the reporter plasmids are added in 30 μL OPTIMEM/well including polyethylene-imine (PEI) as vehicle. Typical amounts of plasmids transfected/well: pCMV-AD-LXR (5 ng), pCMV-BD-cofactor (5 ng), pFR-Luc (100 ng), pRL-CMV (0.5 ng). Compound stocks were prepared in DMSO, prediluted in MEM to a total volume of 120 μL, and added 4 h after addition of the transfection mixture (final vehicle concentration not exceeding 0.2%). Cells were incubated for additional 16 h, lysed for 10 min in 1× Passive Lysis Buffer (Promega) and Firefly and Renilla luciferase activities were measured sequentially in the same cell extract using buffers containing D-luciferine and coelenterazine, respectively. Measurements of luminescence were done in a BMG-Iuminometer.

[6] = target: T3, LXRβ ligand-binding domain (LBD) (Homo sapiens, UniProt P55055, DUP175-175); assay: LXR Gal4 reporter transient transfection assay (M2H), Gal4β LBD; assay type: cell-based; conditions: HEK293 cells; for pEC50: read-out: M2H Gal4β LBD activity range (EC50)
T3 construct: LXRβ (amino acids 156-461); expressed in transfected cells; host or cells: HEK293
T3 sequence (P55055 with tags, fused parts or gaps DUP175-175): T1 sequence (P55055 with tags, fused parts or gaps DUP175-175)
Description: as §1, §2, §3

SMILES | pEC50 [4] | behavior in FRET assay [4] | pEC50 [5] | pEC50 [6] | further results
Cc1cc(C)c(S(=O)(=O)N(Cc2ccc(-c3cccc(S(C)(=O)=O)c3)cc2)Cc2ccc(C(F)(F)F)o2)c(C)c1 [GSK2033, reference compound] |  |  |  |  | oral bioavailability (in words) [1]: not orally bioavailable; blood exposure, 4 h [1]: (14.4 ng/mL); liver exposure, 4 h [1]: (9.6 ng/mL); clearance (Clint) [2]: > 1.0 mL/min/mg prot; clearance (Clint) [3]: > 1.0 mL/min/mg prot
Cc1cc(C)c(S(=O)(=O)N(Cc2ccc(-c3cccc(S(C)(=O)=O)c3)cc2)Cc2ccc(C(=O)O)o2)c(C)c1 [SR10389] |  |  |  |  | activity on LXR (in words) (LXR): inactive
COc1cc(-c2ccc3c(c2)C(C)(C)C(=O)OC3)ccc1CN(Cc1ccc(C(F)(F)F)o1)S(=O)(=O)c1c(C)ccc2ccccc12 [Example 22, N-(4-(4,4-Dimethyl-3-oxoisochroman-6-yl)-2-methoxybenzyl)-2-methyl-N-((5-(trifluoro-methyl)furan-2-yl)methyl)naphthalene-1-sulfonamide] | 5.00 to 6.00 | ia | 5.00 to 6.00 | > 7.00 | 
Cc1cc(C)c(S(=O)(=O)N(Cc2ccc(-c3cncc(C(C)(C)C(=O)O)c3)cc2)Cc2ccc(C(F)(F)F)o2)c(C)c1 [11/18] | 6.00 to 7.00 | ia | 6.00 to 7.00 | > 7.00 | 
Cc1cc(C)c(S(=O)(=O)N(Cc2ccc(-c3cccc(C4(C(=O)O)CC4)c3)cc2)Cc2ccc(C(F)(F)F)o2)c(C)c1 [7/6] | 6.00 to 7.00 | ia | 6.00 to 7.00 | > 7.00 | 
Cc1cc(C)c(S(=O)(=O)N(Cc2ccc(N3CCCC(C(C)(C)C(=O)O)C3)cc2)Cc2ccc(C(F)(F)F)o2)c(C)c1 (stereo not drawn) [16/2] | < 5.00 | ia | 6.00 to 7.00 | 6.00 to 7.00 | 
Cc1cc(C)c(S(=O)(=O)N(Cc2ccc(-c3cccc(C4(C(=O)O)CCOCC4)c3)cc2)Cc2ccc(C(F)(F)F)o2)c(C)c1 [7/8] | < 5.00 | ia | 6.00 to 7.00 | 6.00 to 7.00 | 
Cc1cc(C)c(S(=O)(=O)N(Cc2ccc(-c3cc(F)cc(C4(C(=O)O)CC4)c3)cc2)Cc2ccc(C(F)(F)F)o2)c(C)c1 [7/7] | 6.00 to 7.00 | ia | 6.00 to 7.00 | > 7.00 | 
Cc1cc(C)c(S(=O)(=O)N(Cc2ccc(-c3cccc(S(=O)(=O)O)c3)cc2)Cc2ccc(C(F)(F)F)o2)c(C)c1 [Example 3, 4′-(((2,4,6-Trimethyl-N-((5-(trifluoromethyl)furan-2-yl)methyl)phenyl)sulfon-amido)methyl)-[1,1′-biphenyl]-3-sulfonic acid] | 5.00 to 6.00 | ia |  |  | M2H Gal4α LBD activity range (EC50) [5]: inactive; M2H Gal4β LBD activity range (EC50) [6]: inactive
CCOC(=O)c1ccc(CN(Cc2ccc(-c3cccc(S(C)(=O)=O)c3)cc2)S(=O)(=O)c2c(C)cc(C)cc2C)o1 [SR9238, reference compound] |  |  |  |  | oral bioavailability (in words) [1]: not orally bioavailable; blood exposure, 4 h [1]: po: below LLOQ; liver exposure, 4 h [1]: po: below LLOQ

The next lines start with results.

pEC50 [4] | behavior in FRET assay [4] | pEC50 [5] | pEC50 [6] | SMILES | further results
< 5.00 | ia | 5.00 to 6.00 | 6.00 to 7.00 | Cc1cc(C)c(S(=O)(=O)N(Cc2ccc(-c3cccc(C(=O)O)c3)cc2)Cc2ccc(C(F)(F)F)o2)c(C)c1 [Example C6, 4′-(((2,4,6-Trimethyl-N-((5-(trifluoromethyl)furan-2-yl)methyl)phenyl)sulfonamido)methyl)-[1,1′-biphenyl]-3-carboxylic acid] | 
5.00 to 6.00 | ia | 6.00 to 7.00 | 6.00 to 7.00 | Cc1cc(C)c(S(=O)(=O)N(Cc2ccc(-c3cccc(Cc4nn[nH]n4)c3)cc2)Cc2ccc(C(F)(F)F)o2)c(C)c1 [Example C7, N-((3′-((2H-Tetrazol-5-yl)methyl)-[1,1′-biphenyl]-4-yl)methyl)-2,4,6-trimethyl-N-((5-(trifluoro-methyl)furan-2-yl)methyl)benzenesulfonamide] | 
